This note sets out measurements from publication PMC12186262 (ACS Chemical Biology, 2025).

For assay [1], the target named is wild-type (WT) His-tagged SARS-CoV-2 SgP RBD (Severe acute respiratory syndrome coronavirus 2, UniProt P0DTC2). It is filed as binding. The settings on record: for Mean fluorescence intensity (MFI): glycans printed at 100 µM, MFI scaled to positive control = 100, WT RBD 20 µg/mL.
For assay [2], the target named is T1, WT RBD of SARS-CoV-2 SgP (Severe acute respiratory syndrome coronavirus 2, UniProt P0DTC2). Type of assay: binding. The settings on record: read-out: KD (microarray, sigmoidal fit).
Assay [3] has as its target T1, WT RBD of SARS-CoV-2 SgP. The conditions noted are these: read-out: KD (solution fluorescence titration); pH 7.4.
[4] abbreviates: microarray, WT RBD, library A1-A19.

Where two headings read alike, the source gives them in different places.

With `NOCCOCCO[C@@H]1O[C@@H](C(=O)O)[C@@H](OS(=O)(=O)O)[C@H](O)[C@H]1OS(=O)(=O)O` [A16], the “Binding signal relative to closest neighbors” value in assay [1] (setting [4]) is approximately 3 fold. Regarding `NOCCOCCO[C@@H]1O[C@@H](COS(=O)(=O)O)[C@@H](O[C@@H]2O[C@@H](COS(=O)(=O)O)[C@@H](O[C@@H]3O[C@@H](COS(=O)(=O)O)[C@@H](O[C@@H]4O[C@@H](COS(=O)(=O)O)[C@@H](OS(=O)(=O)O)[C@H](O)[C@H]4OS(=O)(=O)O)[C@H](O)[C@H]3OS(=O)(=O)O)[C@H](O)[C@H]2OS(=O)(=O)O)[C@H](O)[C@H]1OS(=O)(=O)O` [B34], the Kd in assay [2] came out at 201 ± 64 nM; in assay [3] it was 61 ± 8 nM. Turning to `NOCCOCCO[C@@H]1O[C@@H](COS(=O)(=O)O)[C@@H](O[C@@H]2O[C@@H](COS(=O)(=O)O)[C@@H](O[C@@H]3O[C@@H](COS(=O)(=O)O)[C@@H](OS(=O)(=O)O)[C@H](O)[C@H]3OS(=O)(=O)O)[C@H](O)[C@H]2OS(=O)(=O)O)[C@H](O)[C@H]1OS(=O)(=O)O` [B33], the Kd in assay [2] came out at 307 ± 38 nM. For `CC(=O)N[C@H]1[C@@H](O[C@H]2[C@H](F)[C@@H](OS(=O)(=O)O)[C@H](OCCCN)O[C@@H]2C(=O)O)O[C@H](COS(=O)(=O)O)[C@@H](O)[C@@H]1OS(=O)(=O)O` [B20], the “Mean fluorescence intensity (MFI)” value in assay [1] was more than 30. On the same count and under the same terms, the result for `NCCCO[C@@H]1O[C@H](C(=O)O)[C@@H](O[C@H]2O[C@H](COS(=O)(=O)O)[C@@H](O)[C@H](OS(=O)(=O)O)[C@H]2NS(=O)(=O)O)[C@H](F)[C@H]1OS(=O)(=O)O` [B23] reads more than 30.

With `NCCCO[C@@H]1O[C@@H](C(=O)O)[C@@H](O[C@H]2O[C@H](CO)[C@@H](O[C@@H]3O[C@@H](C(=O)O)[C@@H](O[C@H]4O[C@H](CO)[C@@H](O)[C@H](OS(=O)(=O)O)[C@H]4N)[C@H](O)[C@H]3O)[C@H](OS(=O)(=O)O)[C@H]2N)[C@H](O)[C@H]1O` [A9], the “Recognition by WT RBD better than the next best molecule (A10)” value in assay [1] (setting [4]) is recorded as more than 250%.

As to `NCCCO[C@@H]1O[C@H](C(=O)O)[C@@H](O[C@H]2O[C@H](COS(=O)(=O)O)[C@@H](O)[C@H](OS(=O)(=O)O)[C@H]2NS(=O)(=O)O)[C@H](F)[C@H]1O` [B22], the “Mean fluorescence intensity (MFI)” value in assay [1] was more than 30. On to `NOCCOCCO[C@@H]1O[C@@H](COS(=O)(=O)O)[C@@H](O[C@@H]2O[C@@H](COS(=O)(=O)O)[C@@H](OS(=O)(=O)O)[C@H](O)[C@H]2OS(=O)(=O)O)[C@H](O)[C@H]1OS(=O)(=O)O` [B32], for which the Kd in assay [2] is 243 ± 41 nM. Take `NCCCO[C@@H]1O[C@@H](C(=O)O)[C@@H](O[C@H]2O[C@H](CO)[C@@H](O[C@@H]3O[C@@H](C(=O)O)[C@@H](O[C@H]4O[C@H](CO)[C@@H](O)[C@H](OS(=O)(=O)O)[C@H]4N)[C@H](O)[C@H]3OS(=O)(=O)O)[C@H](OS(=O)(=O)O)[C@H]2N)[C@H](O)[C@H]1OS(=O)(=O)O` [A13]: in assay [1], the “Mean fluorescence intensity (MFI)” value was “lower MFI in comparison to A9”.

As for `NOCCOCCO[C@@H]1O[C@@H](COS(=O)(=O)O)[C@@H](OS(=O)(=O)O)[C@H](O)[C@H]1OS(=O)(=O)O` [B30], the “MFI relative to nonsulfated monosaccharide B24 and 3-O-sulfated B28” value in assay [1] (microarray, WT RBD) is listed as 4 fold.
